Measurements: patent US12472214B2, “Bacterial strains, the compositions thereof and use thereof in a method for the treatment of vitamin D deficiency, and disorders associated therewith” (priority 2020, dated 2025)

How the values were obtained:
[1] = In vivo murine study: 25(OH)D in serum by ELISA (bioavailability of vitamin D); design: species or system mice (Cd1); details: mice; one-week daily administration (groups 3, 5, 6)
Protocol: Mice (8-week old adult male Cd1) were enclosure-adapted and fed on a conventional diet. Mice were housed in cages and kept in a temperature-controlled environment (22±2° C.) with a 12-hour light/dark cycle with food for regular chow and tap water supplied ad libitum. After one week of acclimatisation, the animals were then randomly divided into 6 experimental groups of 6 mice each and each group was randomly assigned to one of the scheduled treatments (Table 1).
The strain Lactobacillus paracasei DG® CNCM I-1572 (in short, L paracasei DG®) was sub-cultured in MRS agar and a single colony was inoculated into culture broth and incubated for 18 hours at 37° C. under microaerophilic conditions. […] The optical density (OD 600 nm) was then measured and the suspension was diluted to OD=1.00. […] The decimal count of aliquots on selective medium allowed to quantify the live cell concentration equal to 1.6×10^9 CFU/ml of suspension (2.4×10^8 CFU/aliquot). […]
Mice were sacrificed 3 hours after the end of administration following fluorane anaesthesia and subsequent collection of blood by means of cardiac puncture and removal of the terminal ileum. […] The terminal ileum was first washed with PBS and then subjected to the collection of mucosa and the subsequent freezing in liquid nitrogen. mRNA was then extracted for the quantification of the expression of the vitamin D receptor at mucosal level. […]

vitamin D receptor VDR = assay: In vivo murine study: quantification of vitamin D receptor mRNA in ileal mucosa (quantitative PCR); design: species or system mice (Cd1); details: mice
Protocol: Mice were sacrificed 3 hours after the end of administration following fluorane anaesthesia and subsequent collection of blood by means of cardiac puncture and removal of the terminal ileum. The blood was centrifuged for the separation of serum which was then frozen until the subsequent dose of vitamin D3, in the form of 25-hydroxy-vitamin D (abbreviated as […] 25(OH)D). The terminal ileum was first washed with PBS and then subjected to the collection of mucosa and the subsequent freezing in liquid nitrogen. mRNA was then extracted for the quantification of the expression of the vitamin D receptor at mucosal level.
The terminal ileum was first washed with PBS and then subjected to the collection of mucosa and the subsequent freezing in liquid nitrogen. mRNA was then extracted for the quantification of the expression of the vitamin D receptor at mucosal level. From an operational point of view, total RNA extraction from the mucosa was performed first, then a 30 ng aliquot of total RNA was reverse transcribed to cDNA and then subjected to a quantitative PCR with primers for the vitamin D receptor VDR (described by Wu et al. 2010). Below is the summary of the sequence of primers: […]
RT-PCR analyses were also conducted using an “absolute” negative control and a housekeeping gene to normalise the results obtained (e.g. β-actin).

With C=C1CC[C@H](O)C/C1=C/C=C1\CCC[C@]2(C)[C@@H]([C@H](C)CCCC(C)C)CC[C@@H]12 [vitamin D3, cholecalciferol] the “change in serum levels of 25(OH)D versus treatment-free control group (statistical significance)” value [1] was “did not generate any statistically significant change”, the “vitamin D receptor mRNA expression level in ileal mucosa versus treatment-free control” value (vitamin D receptor VDR; one-week daily administration (groups 3, 5, 6)) was “even more marked decrease” and the “vitamin D receptor mRNA expression level in ileal mucosa versus treatment-free control” value (vitamin D receptor VDR; vitamin D3 single dose (groups 2 and 4)) was “statistically significant decrease”.
